One test deals with T1, HsEH (Homo sapiens, UniProt P34913).
T1 sequence (P34913 1-555): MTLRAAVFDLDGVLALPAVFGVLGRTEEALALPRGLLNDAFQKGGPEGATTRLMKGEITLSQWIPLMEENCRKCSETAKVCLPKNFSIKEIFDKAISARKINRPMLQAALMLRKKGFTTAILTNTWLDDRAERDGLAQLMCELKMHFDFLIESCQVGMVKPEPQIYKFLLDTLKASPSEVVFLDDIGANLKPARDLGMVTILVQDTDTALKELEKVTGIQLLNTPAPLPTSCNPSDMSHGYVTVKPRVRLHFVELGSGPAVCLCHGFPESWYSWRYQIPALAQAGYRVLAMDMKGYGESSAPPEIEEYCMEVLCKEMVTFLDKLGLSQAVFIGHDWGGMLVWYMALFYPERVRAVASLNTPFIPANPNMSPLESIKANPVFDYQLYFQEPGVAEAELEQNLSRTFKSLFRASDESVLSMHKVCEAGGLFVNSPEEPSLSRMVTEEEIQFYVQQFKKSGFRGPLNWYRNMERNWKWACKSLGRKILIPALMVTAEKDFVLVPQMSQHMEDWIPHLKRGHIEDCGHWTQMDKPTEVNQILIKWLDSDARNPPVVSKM
The experiment in a line: biochemical. In kind it is biochemical. The text has this: (§1) Detection principle: a specific substrate, (3-phenyl-oxy)-acetic acid cyano-(6-methoxy-naphthalen-2-yl)methyl ester, namely PHOME, is non-fluorescent but can be hydrolyzed under the action of sEH enzyme to generate a product 6-methoxy-2-naphthaldehyde. The 6-methoxy-2-naphthaldehyde can emit fluorescence with a wavelength of 465 nm under 330 nm light wave excitation, and an intensity of the detected fluorescence signal is inversely proportional to an inhibitory effect on the sEH enzyme. Based on the above principle, the inhibition rates of samples with different concentrations were calculated compared with the positive control group. The IC50 value of the compound was calculated based on the inhibition rate and concentration using SPSS 20 software.
(§2) 25 mM Tris-HCl buffer (pH=7.4, containing 0.1 mg/mL BSA): […] BAS was added to 12.5 mL of 1 M Tris-HCl buffer, followed by diluting with purified water, and a resulting mixture was adjusted to a pH value of 7.4 with hydrochloric acid, and diluted to 500 mL.
(§3) PHOME solution: 0.79 mg PHOME was dissolved in 106 μL DMSO to obtain a 20 mM PHOME solution, which was diluted to ⅓ mM with Tris-HCl buffer before use.
(§4) sEH solution: sEH (5 mg/mL) stock solution was stored in a refrigerator at −80° C. and diluted to 4 μg/mL with 25 mM Tris-HCl buffer before use.
(§5) A sample powder to be tested was dissolved in DMSO to a 20 mM solution, stored in a refrigerator at −20° C. for later use, and diluted with Tris-HCl buffer to corresponding concentrations when used.
(§6) Experimental design: solvent group, 100% activity group (A), inhibitor group (B), positive control group (C), as shown in Table 1.
(§7) Three replicate wells were set for each sample, and the average value of the three replicate wells was the fluorescence value (F) of the compound to be tested. […] The IC50 value of the compound was calculated based on the inhibition rate and concentration using SPSS 20 software.

The target in another test is T2, MsEH (Mus musculus, UniProt P34914).
T2 sequence (P34914 1-554): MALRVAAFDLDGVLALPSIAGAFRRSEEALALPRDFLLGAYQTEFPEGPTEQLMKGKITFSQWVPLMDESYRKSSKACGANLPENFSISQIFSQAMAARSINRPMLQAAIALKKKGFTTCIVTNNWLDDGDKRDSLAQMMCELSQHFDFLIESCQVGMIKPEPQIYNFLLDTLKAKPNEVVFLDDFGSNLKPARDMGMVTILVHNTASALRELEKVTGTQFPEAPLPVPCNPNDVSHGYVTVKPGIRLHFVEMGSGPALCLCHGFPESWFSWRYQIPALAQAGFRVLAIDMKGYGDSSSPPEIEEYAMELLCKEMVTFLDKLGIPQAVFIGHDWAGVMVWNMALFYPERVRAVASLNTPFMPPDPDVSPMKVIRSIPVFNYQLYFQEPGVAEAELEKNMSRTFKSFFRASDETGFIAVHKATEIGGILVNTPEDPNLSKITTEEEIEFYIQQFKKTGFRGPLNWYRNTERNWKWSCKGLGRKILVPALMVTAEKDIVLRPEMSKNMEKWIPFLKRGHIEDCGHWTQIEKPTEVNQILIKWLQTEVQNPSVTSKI
Description: sEH inhibitory activity, PHOME fluorescence assay (MsEH). In kind it is biochemical.
Source text: as §1, §2, §3, §4, §5, §6, §7

Where [1] appears, read: PHOME substrate 50 μM, sEH 400 ng/ml, 37° C., 10 min, fluorescence 330/465 nm, read-out: HsEH IC50 (nM) Inhibitory activity against HsEH.

The results in this text go back to patent publication US20260224548A1 (priority 2022, published 2026).

The IC50 is the concentration needed to halve the response being measured.

Like-named read-outs stand apart in the source and are kept apart here.

On to `CC12CC3CC(C)(C1)CC(NC(=O)Nc1ccc(C(=O)N[C@H]4CC[C@H](C(=O)NC(CO)(CO)CO)CC4)cc1F)(C3)C2` [ZT-115, N-((1r,4R)-4-((1,3-dihydroxy-2-(hydroxymethyl)propan-2-yl)carbamoyl)cyclohexyl)-4-(3-((1r,3R,5S,7r)-3,5-dimethyladamantan-1-yl)ureido)-3-fluorobenzamide], for which the IC50 at HsEH (setting [1]) amounted to 0.35 nM; on MsEH, 0.12 nM.
As to `CC12CC3CC(C)(C1)CC(NC(=O)Nc1ccc(C(=O)N[C@H]4CC[C@H](C(=O)NCCO)CC4)cc1F)(C3)C2` [ZT-110, 4-(3-((1r,3R,5S,7r)-3,5-dimethyladamantan-1-yl)ureido)-3-fluoro-N-((1r,4R)-4-((2-hydroxyethyl)carbamoyl)cyclohexyl)benzamide], the IC50 at HsEH stood at 0.8 nM; on MsEH, 0.18 nM.
With `CCN(CC)C(=O)[C@H]1CCCN(Cc2ccc(NC(=O)NC34CC5CC(C)(CC(C)(C5)C3)C4)c(F)c2)C1` [CL-106, (S)-1-(4-(3-((1r,3R,5S,7S)-3,5-dimethyladamantan-1-yl)ureido)-3-fluorobenzyl)-N,N-diethylpiperidine-3-carboxamide], the figures for the IC50 at HsEH (setting [1]) and on MsEH were 0.35 nM and 0.5 nM, respectively.
With `CC12CC3CC(C)(C1)CC(NC(=O)Nc1ccc(CN4CCC(C(=O)NC(CO)CO)CC4)cc1F)(C3)C2` [CL-119, N-(1,3-dihydroxypropan-2-yl)-1-(4-(3-((1r,7r)-3,5-dimethyladamantan-1-yl)ureido)-3-fluorobenzyl) piperidine-4-carboxamide], the IC50 came to 31.6 nM against HsEH and 2.25 nM against MsEH.
As to `CC12CC3CC(C)(C1)CC(NC(=O)Nc1ccc(CN4CCC[C@H](C(=O)N5CCN(CCO)CC5)C4)cc1F)(C3)C2` [CL-116, 1-((1r,3R,5S,7S)-3,5-dimethyladamantan-1-yl)-3-(2-fluoro-4-(((S)-3-(4-(2-hydroxyethyl)piperazine-1-carbonyl)piperidin-1-yl)methyl)phenyl) urea], the values for the IC50 on HsEH (setting [1]) and at MsEH were 0.98 nM and 0.55 nM, respectively.
The corresponding values for `CC(=O)N1CCC(CC(=O)N2CCCN(Cc3ccc(NC(=O)NC45CC6CC(C)(CC(C)(C6)C4)C5)c(F)c3)CC2)CC1` [GL-3, 1-(4-((4-(2-(1-acetylpiperidin-4-yl)acetyl)-1,4-diaza-1-yl)methyl)-2-fluorophenyl)-3-((1r,3R,5S,7r)-3,5-dimethyladamantan-1-yl) urea] are 0.49 nM and 0.11 nM.
Regarding `CC12CC3CC(C)(C1)CC(NC(=O)Nc1ccc(C(=O)N4CCC(C(=O)N5CCN(CCO)CC5)CC4)cc1F)(C3)C2` [CC-112, 1-((1r,3R,5S,7r)-3,5-dimethyladamantan-1-yl)-3-(2-fluoro-4-(4-(4-(2-hydroxyethyl)piperazine-1-carbonyl)piperidine-1-carbonyl)phenyl) urea], the IC50 came to 12.5 nM against HsEH and 0.32 nM at MsEH.
With `CCN(CC)CCN1CCC(CC(=O)N2CCCN(Cc3ccc(NC(=O)NC45CC6CC(C)(CC(C)(C6)C4)C5)c(F)c3)CC2)CC1` [GL-24, 1-(4-((4-(2-(1-(2-(diethylamino)ethyl)piperidin-4-yl)acetyl)-1,4-diaza-1-yl)methyl)-2-fluorophenyl)-3-((1r,3R,5S,7r)-3,5-dimethyladamantan-1-yl) urea], the 50% inhibitory concentration (IC50) on HsEH (setting [1]) came out at 2.1 nM; against MsEH, 1.37 nM.
The corresponding values for `CC(O)CNC(=O)[C@H]1CC[C@H](NC(=O)c2ccc(NC(=O)NC34CC5CC(C)(CC(C)(C5)C3)C4)c(F)c2)CC1` (stereo partly drawn) [ZT-111, 4-(3-((1r,3R,5S,7r)-3,5-dimethyladamantan-1-yl)ureido)-3-fluoro-N-((1r,4R)-4-((2-hydroxypropyl)carbamoyl)cyclohexyl)benzamide] are 1.54 nM and 0.44 nM.
The corresponding values for `CN(C)CCN1CCC(CC(=O)N2CCCN(Cc3ccc(NC(=O)NC45CC6CC(C)(CC(C)(C6)C4)C5)c(F)c3)CC2)CC1` [GL-23, 1-((1r,3R,5S,7r)-3,5-dimethyladamantan-1-yl)-3-(4-((4-(2-(1-(2-(dimethylamino)ethyl)piperidin-4-yl)acetyl)-1,4-diaza-1-yl)methyl)-2-fluorophenyl) urea] are 2.59 nM and 0.67 nM.
Consider `CC12CC3CC(C)(C1)CC(NC(=O)Nc1ccc(CN4CCC[C@H](C(=O)N5CCCN(C(=O)C6CC6)CC5)C4)cc1F)(C3)C2` [CL-204], for which the values for the IC50 at HsEH (setting [1]) and on MsEH were 0.42 nM and 0.8 nM, respectively.
In the case of `CC(=O)N1CCCN(C(=O)[C@H]2CCCN(C(=O)c3ccc(NC(=O)NC45CC6CC(C)(CC(C)(C6)C4)C5)c(F)c3)C2)CC1` [GL-101, 1-(4-((S)-3-(4-acetyl-1,4-diaza-1-carbonyl)piperidine-1-carbonyl)-2-fluorophenyl)-3-((1r,3R,5S,7S)-3,5-dimethyladamantan-1-yl) urea], the half-inhibitory concentration (IC50) was determined as 0.6 nM on HsEH and 0.26 nM on MsEH.
With `CC12CC3CC(C)(C1)CC(NC(=O)Nc1ccc(CN4CCC[C@H](C(=O)NCCO)C4)cc1F)(C3)C2` [CL-114, (S)-1-(4-(3-((1r,3R,5S,7S)-3,5-dimethyladamantan-1-yl)ureido)-3-fluorobenzyl)-N-(2-hydroxyethyl) piperidine-3-carboxamide], the IC50 is 0.63 nM on HsEH (setting [1]) and 0.18 nM against MsEH.
The corresponding values for `CCN(CC)C(=O)[C@H]1CCCN(C(=O)c2ccc(NC(=O)NC34CC5CC(C)(CC(C)(C5)C3)C4)c(F)c2)C1` [CC-110, (S)-1-(4-(3-((1r,3R,5S,7S)-3,5-dimethyladamantan-1-yl)ureido)-3-fluorobenzoyl)-N,N-diethylpiperidine-3-carboxamide] are 0.35 nM and 0.38 nM.
As to `CC12CC3CC(C)(C1)CC(NC(=O)Nc1ccc(CN4CCC(C(=O)N(CCO)CCO)CC4)cc1F)(C3)C2` [CL-109, 1-(4-(3-((1r,7r)-3,5-dimethyladamantan-1-yl)ureido)-3-fluorobenzyl)-N,N-bis(2-hydroxyethyl) piperidine-4-carboxamide], the IC50 at HsEH (setting [1]) was 6.72 nM; at MsEH, 0.55 nM.
Consider `CC(O)CNC(=O)C1CCN(Cc2ccc(NC(=O)NC34CC5CC(C)(CC(C)(C5)C3)C4)c(F)c2)CC1` (centres unmarked) [CL-120, 1-(4-(3-((1r,7r)-3,5-dimethyladamantan-1-yl)ureido)-3-fluorobenzyl)-N-(2-hydroxypropyl) piperidine-4-carboxamide], for which the IC50 came to 6 nM against HsEH and 0.47 nM against MsEH.
